Key:
Type in all cases: in vivo
[1] = system: Myzus persicae (Green peach aphid); assay: Myzus persicae (Green peach aphid) mortality, test compounds mixed with Sucrose solution under Parafilm; settings: 120 h, 12.5 ppm in Sucrose solution, infested pea seedlings on Parafilm, mortality 5 days after infestation
[2] = system: Diabrotica balteata (Corn root worm); assay: Diabrotica balteata (Corn root worm) larval mortality, artificial diet in 24-well MTP; settings: 120 h, application rate 200 ppm (concentration in well 18 ppm), L2 larvae, larval mortality after 5 days
[3] = system: Spodoptera littoralis (Egyptian cotton leafworm); assay: Spodoptera littoralis (Egyptian cotton leafworm) mortality, sprayed cotton leaf discs; settings: foliar, 72 h, 200 ppm spray on cotton leaf discs, L1 larvae, mortality 3 DAT
[4] = system: Plutella xylostella (Diamond back moth); assay: Plutella xylostella (Diamond back moth) larval mortality, artificial diet in 24-well MTP; settings: 144 h, application rate 200 ppm (concentration in well 18 ppm), L2 larvae, larval mortality after 6 days
[5] = system: Thrips tabaci (Onion thrips); assay: Thrips tabaci (Onion thrips) mortality, sprayed sunflower leaf discs; settings: foliar, 168 h, 200 ppm spray on sunflower leaf discs, mixed ages, mortality after 7 days
[6] = system: Myzus persicae (Green peach aphid); assay: Myzus persicae (Green peach aphid) mortality, sprayed sunflower leaf discs; settings: foliar, 144 h, 200 ppm spray on sunflower leaf discs, mixed ages, mortality 6 DAT

COc1c(NC(=O)c2ccccc2F)cccc1C(=O)Nc1c(Br)cc(C(F)(C(F)(F)F)C(F)(F)F)cc1OC(F)F [Compound 33]
≥ 80%: pest or weed control at 12.5 ppm [1] | pest or weed control at 200 ppm [2] | pest or weed control at 200 ppm [3] | pest or weed control at 200 ppm [4] | pest or weed control at 200 ppm [5]

COc1c(NC(=O)c2cc(Cl)ccc2F)cccc1C(=O)Nc1c(Br)cc(C(F)(C(F)(F)F)C(F)(F)F)cc1OC(F)F [Compound 44]
≥ 80%: pest or weed control at 12.5 ppm [1] | pest or weed control at 200 ppm [3] | pest or weed control at 200 ppm [4]

COc1c(NC(=O)c2ccc(F)c(C(F)(F)F)c2)cccc1C(=O)Nc1c(Br)cc(C(F)(C(F)(F)F)C(F)(F)F)cc1OC(F)F [Compound 52]
≥ 80%: pest or weed control at 200 ppm [6] | pest or weed control at 200 ppm [2] | pest or weed control at 200 ppm [3] | pest or weed control at 200 ppm [4] | pest or weed control at 200 ppm [5]

COc1c(NC(=O)c2ccccc2C(F)(F)F)cccc1C(=O)Nc1c(Br)cc(C(F)(C(F)(F)F)C(F)(F)F)cc1OC(F)F [Compound 63]
≥ 80%: pest or weed control at 200 ppm [6] | pest or weed control at 200 ppm [2] | pest or weed control at 200 ppm [3] | pest or weed control at 200 ppm [4] | pest or weed control at 200 ppm [5]

COc1c(NC(=O)c2cccc(F)c2F)cccc1C(=O)Nc1c(Br)cc(C(F)(C(F)(F)F)C(F)(F)F)cc1OC(F)F [Compound 69]
≥ 80%: pest or weed control at 200 ppm [6] | pest or weed control at 200 ppm [2] | pest or weed control at 200 ppm [3] | pest or weed control at 200 ppm [4] | pest or weed control at 200 ppm [5]

COc1c(NC(=O)c2cc(C(F)(F)F)ccc2F)cccc1C(=O)Nc1c(Br)cc(C(F)(C(F)(F)F)C(F)(F)F)cc1OC(F)F [Compound 73]
≥ 80%: pest or weed control at 200 ppm [6] | pest or weed control at 200 ppm [3]

COc1c(NC(=O)c2ccc(C)cc2)cccc1C(=O)Nc1c(Cl)cc(C(F)(C(F)(F)F)C(F)(F)F)cc1OC(F)F [Compound 82]
≥ 80%: pest or weed control at 200 ppm [6] | pest or weed control at 200 ppm [2] | pest or weed control at 200 ppm [3] | pest or weed control at 200 ppm [4] | pest or weed control at 200 ppm [5]

COc1c(NC(=O)c2cccc(F)c2F)cccc1C(=O)Nc1c(Cl)cc(C(F)(C(F)(F)F)C(F)(F)F)cc1OC(F)F [Compound 96]
≥ 80%: pest or weed control at 200 ppm [6] | pest or weed control at 200 ppm [3] | pest or weed control at 200 ppm [4]

CCN(C(=O)c1cc(Cl)ccc1F)c1cccc(C(=O)Nc2c(Br)cc(C(F)(C(F)(F)F)C(F)(F)F)cc2OC(F)F)c1F [Compound 104]
≥ 80%: pest or weed control at 12.5 ppm [1] | pest or weed control at 200 ppm [2] | pest or weed control at 200 ppm [3] | pest or weed control at 200 ppm [4] | pest or weed control at 200 ppm [5]

CCN(C(=O)c1cc(C(F)(F)F)ccc1F)c1cccc(C(=O)Nc2c(Br)cc(C(F)(C(F)(F)F)C(F)(F)F)cc2OC(F)F)c1F [Compound 110]
≥ 80%: pest or weed control at 12.5 ppm [1] | pest or weed control at 200 ppm [2] | pest or weed control at 200 ppm [3] | pest or weed control at 200 ppm [4] | pest or weed control at 200 ppm [5]

CCN(C(=O)c1ccc([N+](=O)[O-])cc1)c1cccc(C(=O)Nc2c(Cl)cc(C(F)(C(F)(F)F)C(F)(F)F)cc2OC(F)F)c1F [Compound 113]
≥ 80%: pest or weed control at 12.5 ppm [1] | pest or weed control at 200 ppm [2] | pest or weed control at 200 ppm [3] | pest or weed control at 200 ppm [4]

CCN(C(=O)c1ccc(C)cc1)c1cccc(C(=O)Nc2c(Cl)cc(C(F)(C(F)(F)F)C(F)(F)F)cc2OC(F)F)c1F [Compound 114]
≥ 80%: pest or weed control at 12.5 ppm [1] | pest or weed control at 200 ppm [2] | pest or weed control at 200 ppm [3] | pest or weed control at 200 ppm [4] | pest or weed control at 200 ppm [5]

CCN(C(=O)c1cc(Cl)ccc1F)c1cccc(C(=O)Nc2c(Cl)cc(C(F)(C(F)(F)F)C(F)(F)F)cc2OC(F)F)c1F [Compound 115]
≥ 80%: pest or weed control at 12.5 ppm [1] | pest or weed control at 200 ppm [2] | pest or weed control at 200 ppm [3] | pest or weed control at 200 ppm [4] | pest or weed control at 200 ppm [5]

CCN(C(=O)c1ccc([N+](=O)[O-])cc1Cl)c1cccc(C(=O)Nc2c(Cl)cc(C(F)(C(F)(F)F)C(F)(F)F)cc2OC(F)F)c1F [Compound 116]
≥ 80%: pest or weed control at 12.5 ppm [1] | pest or weed control at 200 ppm [2] | pest or weed control at 200 ppm [3] | pest or weed control at 200 ppm [5]

CCN(C(=O)c1ccc(C(F)(F)F)cc1)c1cccc(C(=O)Nc2c(Cl)cc(C(F)(C(F)(F)F)C(F)(F)F)cc2OC(F)F)c1F [Compound 117]
≥ 80%: pest or weed control at 12.5 ppm [1] | pest or weed control at 200 ppm [2] | pest or weed control at 200 ppm [3] | pest or weed control at 200 ppm [4] | pest or weed control at 200 ppm [5]

CCN(C(=O)c1ccccc1Cl)c1cccc(C(=O)Nc2c(Br)cc(C(F)(C(F)(F)F)C(F)(F)F)cc2OC(F)F)c1OC [Compound 131]
≥ 80%: pest or weed control at 200 ppm [6] | pest or weed control at 200 ppm [2] | pest or weed control at 200 ppm [3] | pest or weed control at 200 ppm [4] | pest or weed control at 200 ppm [5]

CCN(C(=O)c1ccc(C)cc1)c1cccc(C(=O)Nc2c(Br)cc(C(F)(C(F)(F)F)C(F)(F)F)cc2OC(F)F)c1OC [Compound 132]
≥ 80%: pest or weed control at 200 ppm [6] | pest or weed control at 200 ppm [2] | pest or weed control at 200 ppm [3] | pest or weed control at 200 ppm [4] | pest or weed control at 200 ppm [5]

CCN(C(=O)c1ccccc1C(F)(F)F)c1cccc(C(=O)Nc2c(Br)cc(C(F)(C(F)(F)F)C(F)(F)F)cc2OC(F)F)c1OC [Compound 140]
≥ 80%: pest or weed control at 200 ppm [6] | pest or weed control at 200 ppm [2] | pest or weed control at 200 ppm [3] | pest or weed control at 200 ppm [4] | pest or weed control at 200 ppm [5]

CCN(C(=O)c1cccc(F)c1F)c1cccc(C(=O)Nc2c(Br)cc(C(F)(C(F)(F)F)C(F)(F)F)cc2OC(F)F)c1OC [Compound 142]
≥ 80%: pest or weed control at 200 ppm [6] | pest or weed control at 200 ppm [2] | pest or weed control at 200 ppm [3] | pest or weed control at 200 ppm [4] | pest or weed control at 200 ppm [5]

CCN(C(=O)c1ccc(F)cc1F)c1cccc(C(=O)Nc2c(Br)cc(C(F)(C(F)(F)F)C(F)(F)F)cc2OC(F)F)c1OC [Compound 143]
≥ 80%: pest or weed control at 200 ppm [6] | pest or weed control at 200 ppm [2] | pest or weed control at 200 ppm [3] | pest or weed control at 200 ppm [4] | pest or weed control at 200 ppm [5]

CCN(C(=O)c1ccccc1Cl)c1cccc(C(=O)Nc2c(Cl)cc(C(F)(C(F)(F)F)C(F)(F)F)cc2OC(F)F)c1OC [Compound 147]
≥ 80%: pest or weed control at 200 ppm [6] | pest or weed control at 200 ppm [2] | pest or weed control at 200 ppm [3] | pest or weed control at 200 ppm [4] | pest or weed control at 200 ppm [5]

CCN(C(=O)c1ccc(C)cc1)c1cccc(C(=O)Nc2c(Cl)cc(C(F)(C(F)(F)F)C(F)(F)F)cc2OC(F)F)c1OC [Compound 149]
≥ 80%: pest or weed control at 200 ppm [6] | pest or weed control at 200 ppm [2] | pest or weed control at 200 ppm [3] | pest or weed control at 200 ppm [4] | pest or weed control at 200 ppm [5]

CCN(C(=O)c1cc(Cl)ccc1F)c1cccc(C(=O)Nc2c(Cl)cc(C(F)(C(F)(F)F)C(F)(F)F)cc2OC(F)F)c1OC [Compound 151]
≥ 80%: pest or weed control at 200 ppm [2] | pest or weed control at 200 ppm [3] | pest or weed control at 200 ppm [4] | pest or weed control at 200 ppm [5]

CCN(C(=O)c1ccccc1C(F)(F)F)c1cccc(C(=O)Nc2c(Cl)cc(C(F)(C(F)(F)F)C(F)(F)F)cc2OC(F)F)c1OC [Compound 157]
≥ 80%: pest or weed control at 200 ppm [2] | pest or weed control at 200 ppm [3] | pest or weed control at 200 ppm [4] | pest or weed control at 200 ppm [5]

COc1c(C(=O)Nc2c(Br)cc(C(F)(C(F)(F)F)C(F)(F)F)cc2OC(F)F)cccc1N(C)C(=O)c1cc[n+]([O-])cc1 [Compound 183, N-[3-[[2-bromo-6-(difluoromethoxy)-4-[1,2,2,2-tetrafluoro-1-(trifluoromethyl)ethyl]phenyl]carbamoyl]-2-methoxy-phenyl]-N-methyl-1-oxido-pyridin-1-ium-4-carboxamide]
≥ 80%: pest or weed control at 12.5 ppm [1] | pest or weed control at 200 ppm [2]
